According to US20220334127A1, “IN VITRO METHOD FOR OBTAINING CLINICAL DATA IN PATIENTS SUFFERING FROM AN INFLAMMATORY DISEASE” (FUNDACIÓN PARA LA FORMACIÓN E INVESTIGACIÓN SANITARIAS DE …, priority 2019, published 2022):

Legend:
monocytes = assay: Mitochondrial ROS production (MitoSOX) in human monocytes; assay type: cell-based; conditions: healthy donor monocytes, ATP 3 mM 30 min (FIG. 5f)
Cell death (LDH assay) = assay type: cell-based
Procedure: Presence of LDH in cell-free supernatants was measured using the Cytotoxicity Detection kit (Roche) following the manufacturer's instructions.

P2X7 receptor = assay: Mitochondrial membrane depolarization (JC-10) after P2X7 receptor stimulation with ATP in monocytes and macrophages; assay type: cell-based, mouse; conditions: ATP 3 mM
Source text: FIG. 5. P2X7 receptor induces mitochondrial membrane depolarization. (a) Mitochondrial membrane potential from blood monocytes stained with JC-10 in a control healthy donor (left), in a septic patient at day 1 (middle), and from healthy controls, abdominal surgery and septic patients at day 1 or 120 (right); PE^− cells represent the monocytes with mitochondrial depolarization. (b) Correlation between the percentage of monocytes with mitochondrial membrane depolarization and the quantification of P2X7 receptor MFI in monocytes from the septic patients; IC: immunocompromised septic patients. (c) Kinetics of mitochondrial depolarization after ATP (3 mM) stimulation of LPS-primed BMDMs incubated or not with the P2X7 receptor antagonist A438079 (10 μM). (d) Percentage of human monocytes from healthy donors with mitochondrial membrane depolarization after ATP (3 mM, 30 min) stimulation and incubated or not with the P2X7 receptor antagonist AZ11645373 (10 μM). […]
Mitochondrial membrane potential was measured using the JC-10 dye (Abcam) in BMDMs with a Sinergy Mx plate reader (BioTek) or by flow cytometry using the BD FACS Celesta flow cytometer (BD Biosciences), or in human monocytes (CD14^+ labelled with anti-CD14 APC-H7, clone MφP9, BD Biosciences) using FACS Canto (BD Biosciences), following the indications of manufacturer.

Nc1ncnc2c1ncn2[C@@H]1O[C@H](COP(=O)(O)OP(=O)(O)OP(=O)(O)O)[C@@H](O)[C@H]1O [ATP, adenosine triphosphate]
mitochondrial ROS production (monocytes): an increase in mitochondrial ROS production | cell death (Cell death (LDH assay)): did not induce cell death | mitochondrial membrane depolarization by the agent itself (P2X7 receptor): induced
